Consider one molecule from patent US20050032863A1, “Method of treating or preventing central nervous system disorders with compounds having selectivity for the alpha 3 subunit of the benzodiazepine receptor” (priority 2003, published 2005).

Where “and” joins values, the source holds several entries; their conditions need not be identical. Equal entries are not always repeated.

In data set [1] the target is T1, recombinant rat α1β2γ2 GABAA receptors (Rattus norvegicus, UniProt P62813).
T1 construct: expressed in transfected cells; host or cells: HEK 293
Description: Whole-cell patch-clamp, modulation of GABA (EC20)-induced currents in transfected HEK 293 cells, α1β2γ2. It counts as cell-based. The procedure:
(§1) For electrophysiological recording HEK-293 cells were passaged and replated on 12-mm glass coverslips located in 9.6-cm plastic dishes filled with 10 ml of Minimum Essential Medium (MEM, Gibco) supplemented with 158 mg/l sodium bicarbonate, 2 mM glutamine (Gibco), 100 U/ml penicillin-streptomycin (Gibco), and 10% foetal calf serum (Gibco). Cultures were maintained at 37° C. in a humidified […]/5% CO2 atmosphere for 2-3 days.
(§2) Transfection with recombinant rat GABAA receptors was carried out as described in detail (Korpi and Lüddens, 1993, Lüddens and Korpi, 1995b). Briefly, HEK 293 cells were transfected in triple combinations using the phosphate precipitation method with rat GABAA receptor cDNAs in eukaryotic expression vectors (Pritchett, 1990) for the α, β and γ subunits. For optimal receptor expression, final concentrations (μg vector DNA per 9.6 cm tissue culture plate) were: α1, 2; α2 4.8; α3, 1.2; α4, 10; α5, 0.8; β2, 0.4; and γ2S, 0.3. The γ2S variant is abbreviated γ2 in the remainder of the text. To identify transfected cells all subunit combinations were co-transfected with 1 μg per plate of pNI-EGFP.
(§3) Two days after transfection single coverslips containing HEK 293 cells were placed in a recording chamber mounted on the movable stage of a fluorescence microscope (Olympus IX70) and perfused with a defined saline solution containing (in mM): 130 NaCl, 5.4 KCl, 2 CaCl2, 2 MgSO4, 10 glucose, 5 sucrose, and 10 HEPES (free acid), pH adjusted to 7.35 with about 35 mM NaOH. Transfected cells were identified by their green fluorescence due to the expression of the pNI-EGFP vector and ligand-mediated membrane currents of these cells were studied in the whole-cell configuration of the patch-clamp technique (Hamil et al., 1981). Patch-clamp pipettes were pulled from hard borosilicate capillary glass (0.5 mm ID, 1.5 mm OD, Vitrex, Science Products GmbH, Hofheim, Germany) using a horizontal puller (Sutter Instruments, CA, Model P-97) in a multi-stage process.
(§4) Seal resistances >1 GΩ were routinely obtained by applying gentle suction to the pipettes. Membrane rupture was monitored electrically as an increase in capacity. Pipette capacitance, membrane capacitance, and series resistance were electronically compensated to achieve minimal capacitative transients. A series resistance compensation of >60% was regularly used.
(§5) In all cells recorded the presence of the γ2 subunit in the heteropentamere was monitored by the application of 1 μM zolpidem plus the EC20 of GABA before testing the experimental drugs.
(§6) Responses of the cells were recorded by a patch-clamp amplifier (EPC-8, HEKA-Electronic, Lambrecht, Germany) in conjunction with a standard personal computer and the pClamp 8.1 software package (Axon Instruments, Foster City, Calif.). The standard holding-potential for the cells was −40 mV. Whole cell currents were low-pass filtered by an eight-pole Bessel filter at 5 or 3 kHz before being digitised by a Digidata 1322A interface (Axon Instruments, Foster City, Calif.) and recorded by the computer at a sampling rate of at least […].
(§7) Efficacy, potency, and GABAA receptor a subunit specificity of the new compound ELB139 was tested with the whole cell configuration of the patch-clamp technique by applying increasing drug concentration together with GABA of the approximate EC20 on green fluorescing cells. BZ binding site specificity of the new compound was tested on the same cells in an identical experimental setting with additionally applying 10 μM Ro15-1788.

The target in data set [2] is T2, recombinant rat α3β2γ2 GABAA receptors (Rattus norvegicus, UniProt P20236).
T2 construct: expressed in transfected cells; host or cells: HEK 293
Description: Whole-cell patch-clamp, modulation of GABA (EC20)-induced currents in transfected HEK 293 cells, α3β2γ2. It counts as cell-based. The procedure: as §1, §2, §3, §4, §5, §6, §7
On the technique in general: In patch-clamp work, channel activity is measured electrically.

Data set [3] addresses T3, recombinant rat α5β2γ2 GABAA receptors (Rattus norvegicus, UniProt P19969).
T3 construct: expressed in transfected cells; host or cells: HEK 293
Description: Whole-cell patch-clamp, modulation of GABA (EC20)-induced currents in transfected HEK 293 cells, α5β2γ2. It counts as cell-based. The procedure: as §1, §2, §3, §4, §5, §6, §7

For data set [4], the system named is dt^sz mutant Syrian golden hamsters. Description: Genetic hamster model of paroxysmal dystonia, triple stimulation. Type of data set: in vivo, Syrian golden hamster. The procedure: Drug testing was performed at the maximal sensitivity of the hamsters for induction of dystonic attacks, i.e. between 30 and 40 days of age. Dystonic attacks were induced by a triple stimulation technique: The hamsters were taken from their home cage and placed on a balance (to determine body weight), were then injected i.p. with saline (control) or drug, and immediately placed individually in a new and empty plastic cage. Dystonic attacks started within a few minutes after placing the hamsters in the new plastic cage.
The final stage persisted for two to five hours, but rapid recovery occurred thereafter.
A first group of animals (n=8) was tested for ocurrence and severity of dystonic attacks at the age of 32-33 days after administration of vehicle (i.p.) as well as after performing the triple stimulation procedure as described above. Two or three days later, the same animals received E131-00139 i.p. and were again observed for 3 hours and again 2-3 days later the animals were re-tested after vehicle administration to serve as post dose control. […] The first stack represents the first hour of observation statring with drug administration, the second stack of bars represents the second hour of observation and the third stack the third hour.
The first (open) bar represents the control response of the animals recorded 2-3 days prior to the drug test, the black bar represents the results obtained after drug administration and the third (gray) bar represents the post drug control tested 2-3 days after the drug administration. The pre-and post test was used to exclude that a reduction of severity of stages was only due to a reduction in sensitivity for the induction of dystonic attacks is age dependent.

As a reminder, the EC50 is the concentration at which the effect is half-maximal.

T1 sequence (P62813 28-455): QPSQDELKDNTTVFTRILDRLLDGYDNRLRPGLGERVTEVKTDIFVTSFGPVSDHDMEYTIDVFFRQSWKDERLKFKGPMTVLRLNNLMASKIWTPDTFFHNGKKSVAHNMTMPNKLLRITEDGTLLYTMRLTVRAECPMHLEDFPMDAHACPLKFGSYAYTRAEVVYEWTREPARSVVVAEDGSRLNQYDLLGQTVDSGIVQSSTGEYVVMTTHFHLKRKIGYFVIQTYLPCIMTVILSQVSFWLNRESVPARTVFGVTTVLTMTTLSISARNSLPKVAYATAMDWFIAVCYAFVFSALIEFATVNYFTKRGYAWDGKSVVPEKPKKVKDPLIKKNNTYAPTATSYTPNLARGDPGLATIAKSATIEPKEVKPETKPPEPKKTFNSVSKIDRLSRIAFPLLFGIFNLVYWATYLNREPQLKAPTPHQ
T2 sequence (P20236 29-493): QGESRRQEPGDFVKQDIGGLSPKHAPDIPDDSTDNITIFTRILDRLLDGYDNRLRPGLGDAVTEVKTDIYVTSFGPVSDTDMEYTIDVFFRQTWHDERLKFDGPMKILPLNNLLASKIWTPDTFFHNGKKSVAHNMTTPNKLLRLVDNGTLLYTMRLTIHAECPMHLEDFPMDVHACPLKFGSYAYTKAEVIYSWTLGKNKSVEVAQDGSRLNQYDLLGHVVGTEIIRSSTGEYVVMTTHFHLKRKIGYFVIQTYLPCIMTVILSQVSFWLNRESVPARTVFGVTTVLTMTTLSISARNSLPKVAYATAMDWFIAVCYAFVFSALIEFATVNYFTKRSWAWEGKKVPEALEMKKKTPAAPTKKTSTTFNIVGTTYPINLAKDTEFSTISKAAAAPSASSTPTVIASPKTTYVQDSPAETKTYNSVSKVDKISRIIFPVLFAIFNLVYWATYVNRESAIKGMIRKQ
T3 sequence (P19969 32-464 limits assumed): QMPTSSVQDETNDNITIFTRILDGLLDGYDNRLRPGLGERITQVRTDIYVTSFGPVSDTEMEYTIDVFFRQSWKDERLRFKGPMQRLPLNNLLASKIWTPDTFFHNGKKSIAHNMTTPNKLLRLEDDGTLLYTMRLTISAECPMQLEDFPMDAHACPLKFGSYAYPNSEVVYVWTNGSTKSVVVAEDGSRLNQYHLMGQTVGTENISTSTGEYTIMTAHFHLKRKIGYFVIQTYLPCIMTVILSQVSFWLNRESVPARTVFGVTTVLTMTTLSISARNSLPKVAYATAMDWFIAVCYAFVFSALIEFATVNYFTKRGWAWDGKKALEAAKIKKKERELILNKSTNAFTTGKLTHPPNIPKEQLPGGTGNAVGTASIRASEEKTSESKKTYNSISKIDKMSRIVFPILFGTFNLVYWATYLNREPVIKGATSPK

As to `O=C1N=C(N2CCCCC2)CN1c1ccc(Cl)cc1` [ELB139, 1-(4-chlorophenyl)-4-piperidinoimidazolin-2-one], the “concentration at which positive current modulation was observable” value in data set [1] (α1-containing receptors) came out at 0.3 µM. In addition, the “maximal positive modulation of GABA-induced current” value in data set [1] (α1-containing receptors, maximum at 30 μM (ELB139), at 1 μM (diazepam)) was 1.6±0.08 fold and 1.6 fold; in data set [3] (maximum at 30 μM (ELB139), at 1 μM (diazepam)), 1.4±0.06 fold and 1.4 fold. In addition, in data set [1] (α1β2γ2), the “concentration at which significant agonistic effects were noticeable” value was “about 1 μM”. Moreover, the EC50 in data set [1] (α1β2γ2, applied with approximate GABA EC20, read-out: EC50 (ELB139)) was 3.8 µM; in data set [2] (α3β2γ2, with GABA EC20, value marked * = graphically determined, read-out: EC50 (ELB139)), 0.06 µM; in data set [3] (applied with approximate GABA EC20, read-out: EC50 (ELB139)), 3.6 µM. Moreover, the “effect of 10 μM Ro15-1788 on the current enhancement by the compound” value in data set [1] (α1β2γ2, co-applied 10 μM Ro15-1788 (flumazenil)) is “completely abolished”; in data set [2] (α3β2γ2, co-applied 10 μM Ro15-1788 (flumazenil)), “completely abolished”; in data set [3] (co-applied 10 μM Ro15-1788 (flumazenil)), “completely abolished”. In addition, the “Potentiation* (ELB139)” value was found to be 1.6 ± 0.08 in data set [1] (α1β2γ2, with GABA EC20, graphically determined); 1.3 ± 0.07 in data set [2] (α3β2γ2, with GABA EC20, graphically determined); 1.4 ± 0.06 in data set [3] (with GABA EC20, graphically determined). Further, the “concentrations at which positive current modulation was observable” value in data set [2] (α3-containing receptors) is given as “above 30 nM”. For the same molecule, in data set [2] (α3-containing receptors, ELB139 at concentrations above 0.3 μM, diazepam at 1 μM), the “highest efficacy / maximal stimulation of GABA-induced current” value was 1.3±0.07 fold and 1.3 fold. Further, the antidystonic activity entry in data set [4] (5 mg/kg i.p.) is given as “still a significant antidystonic activity was present”. Also, in data set [4] (10 mg/kg i.p.), the tolerability and sedation entry is “well tolerated and no sedation was observed”. Moreover, the “severity of the dystonic attack” value in data set [4] (10 mg/kg i.p., total observation period 3 h) was “significantly reduced”.
